This is an account of results in ChEMBL document CHEMBL5608235, “Tricyclic Benzo[1,3]oxazinyloxazolidinones as Potent Antibacterial Agents against Drug-Resistant Pathogens” (J Med Chem, 2024).

In general, MIC refers to the smallest concentration in the dilution series that meets the test's criterion for growth inhibition. As a reminder, the IC50 is the point on the concentration scale where inhibition reaches its midpoint. In general, bioavailability refers to the share of a dose that reaches the circulation, judged against a reference dose that is usually intravenous.

SMILES strings stand for the structures. Converted amounts (≈) assume the structure as drawn. The source made the active and inactive calls.

Data set [1] concerns Mycobacterium tuberculosis. In words: Antibacterial activity against Mycobacterium tuberculosis H37Rv assessed as inhibition of bacterial growth incubated for 7 days by alamar blue assay. The class given is functional. The conditions noted are these: 168 h, time 7 day. (In general: Resazurin is reduced to fluorescent resorufin, in cell work by metabolically active cells.)
Data set [2] has as its system Enterococcus faecalis. Description: Antibacterial activity against Enterococcus faecalis ATCC29212 assessed as inhibition of bacterial growth incubated for 18 hrs by microdilution broth assay. It counts as functional.
In another data set the test system is Bacillus subtilis. Description: Antibacterial activity against Bacillus subtilis ATCC6633 assessed as inhibition of bacterial growth incubated for 18 hrs by microdilution broth assay. The class given is functional.
The test system of data set [3] is Staphylococcus epidermidis. In words: Antibacterial activity against Staphylococcus epidermidis ATCC12228 assessed as inhibition of bacterial growth incubated for 18 hrs by microdilution broth assay. It counts as functional.
A short description of data set [4]: Cytotoxicity against African green monkey Vero cells incubated for 48 hrs by MTT assay. It counts as toxicity, cell-based, Chlorocebus sabaeus. On the technique in general: Tetrazolium assays rely on reduction of a dye to a coloured formazan, in cell work by metabolically active cells.
Data set [5] concerns Staphylococcus aureus. In words: Antibacterial activity against methicillin resistant Staphylococcus aureus clinical isolate 20-1 assessed as inhibition of bacterial growth incubated for 7 days by alamar blue assay. It counts as functional. Conditions: clinical isolate 20-1, 168 h, time 7 day.
Data set [6] has as its system Staphylococcus aureus. In words: Antibacterial activity against methicillin resistant Staphylococcus aureus clinical isolate 20-2 assessed as inhibition of bacterial growth incubated for 7 days by alamar blue assay. It counts as functional. Conditions: clinical isolate 20-2, 168 h, time 7 day.
The subject of data set [7] is Staphylococcus epidermidis. Description: Antibacterial activity against methicillin resistant Staphylococcus epidermidis clinical isolate 20-1 assessed as inhibition of bacterial growth incubated for 7 days by alamar blue assay. The class given is functional. The conditions noted are these: clinical isolate 20-1, 168 h, time 7 day.
In data set [8] the test system is Staphylococcus epidermidis. In words: Antibacterial activity against methicillin resistant Staphylococcus epidermidis clinical isolate 20-2 assessed as inhibition of bacterial growth incubated for 7 days by alamar blue assay. It counts as functional. Conditions: clinical isolate 20-2, 168 h, time 7 day.
In data set [9] the test system is Staphylococcus aureus. Description: Antibacterial activity against vancomycin intermediate Staphylococcus aureus ATCC700699 assessed as inhibition of bacterial growth incubated for 7 days by alamar blue assay. It counts as functional. Conditions: ATCC700699, 168 h, time 7 day.
Another data set has as its system Enterococcus. In words: Antibacterial activity against vancomycin resistant Enterococcus clinical isolate 20-1 assessed as inhibition of bacterial growth incubated for 7 days by alamar blue assay. It counts as functional. Conditions: clinical isolate 20-1, 168 h, time 7 day.
In data set [10] the test system is Staphylococcus aureus. Description: Antibacterial activity against Linezolid resistant Staphylococcus aureus clinical isolate 20-1 assessed as inhibition of bacterial growth incubated for 7 days by alamar blue assay. The conditions noted are these: clinical isolate 20-1, 168 h, time 7 day. The class given is functional.
Data set [11] deals with Staphylococcus aureus. Description: Antibacterial activity against Linezolid resistant Staphylococcus aureus clinical isolate 20-2 assessed as inhibition of bacterial growth incubated for 7 days by alamar blue assay. The class given is functional. Conditions: clinical isolate 20-2, 168 h, time 7 day.
Data set [12] relates to Staphylococcus aureus. In words: Antibacterial activity against Linezolid resistant Staphylococcus aureus assessed as inhibition of bacterial growth incubated for 7 days by alamar blue assay. It counts as functional. Conditions: 168 h, time 7 day.
Data set [13] concerns Staphylococcus aureus. In words: Inhibition of protein synthesis in Staphylococcus aureus ATCC 29213 by translation assay. It counts as functional, organism-based.
Data set [14] deals with Staphylococcus aureus. Description: Antibacterial activity against methicillin resistant Staphylococcus aureus ATCC 33592 infected in cyclophosphamide-induced immunosuppressed Kunming mouse assessed as increase in body weight at 50 mg/kg,po administration measured for 7 days. The class given is functional, organism-based. The conditions noted are these: time 7.0 day.
Data set [15] relates to Staphylococcus aureus. Description: Antibacterial activity against methicillin resistant Staphylococcus aureus ATCC 33592 infected in cyclophosphamide-induced immunosuppressed Kunming mouse assessed as reduction in histopathological change in heart at 50 mg/kg,po administration measured after 24 hrs by hematoxylin and eosin staining based microscopy. The class given is functional, organism-based.

Data set [16] deals with Staphylococcus aureus. In words: Antibacterial activity against methicillin resistant Staphylococcus aureus ATCC 33592 infected in cyclophosphamide-induced immunosuppressed Kunming mouse assessed as reduction in inflammatory cell infiltration in liver at 50 mg/kg,po administration measured after 24 hrs by hematoxylin and eosin staining based microscopy. The class given is functional, organism-based.

Data set [17] has as its system Staphylococcus aureus. Description: Antibacterial activity against methicillin resistant Staphylococcus aureus ATCC 33592 infected in cyclophosphamide-induced immunosuppressed Kunming mouse assessed as reduction in inflammatory cell infiltration in kidney at 50 mg/kg,po administration measured after 24 hrs by hematoxylin and eosin staining based microscopy. It counts as functional, organism-based.

Data set [18] has as its system Staphylococcus aureus. Description: Antibacterial activity against methicillin resistant Staphylococcus aureus ATCC 33592 infected in cyclophosphamide-induced immunosuppressed Kunming mouse assessed as reduction in histopathological change in spleen at 50 mg/kg,po administration measured after 24 hrs by hematoxylin and eosin staining based microscopy. It counts as functional, organism-based.

The test system of data set [19] is Staphylococcus aureus. In words: Antibacterial activity against methicillin resistant Staphylococcus aureus ATCC 33592 infected in cyclophosphamide-induced immunosuppressed Kunming mouse assessed as reduction in congestion in spleen at 50 mg/kg,po administration measured after 24 hrs by hematoxylin and eosin staining based microscopy. The class given is functional, organism-based.

Data set [20] has as its system Staphylococcus aureus. In words: Antibacterial activity against methicillin resistant Staphylococcus aureus ATCC 33592 infected in cyclophosphamide-induced immunosuppressed Kunming mouse assessed as reduction in pigment deposition in spleen at 50 mg/kg,po administration measured after 24 hrs by hematoxylin and eosin staining based microscopy. The class given is functional, organism-based.

The subject of data set [21] is Cell membrane. In words: Disruption of cell membrane in methicillin resistant Staphylococcus aureus ATCC 33592 assessed as cell surface perforation at 1 ug/ml incubated for 6 hrs by Scanning electron microscopic analysis. Conditions: dose 1.0 µg/ml. The class given is cell membranes.
The test system of data set [22] is Cell membrane. Description: Disruption of cell membrane in methicillin resistant Staphylococcus aureus ATCC 33592 assessed as cell shrinkage at 1 ug/ml incubated for 6 hrs by Scanning electron microscopic analysis. The class given is cell membranes. The conditions noted are these: dose 1.0 µg/ml.
The subject of data set [23] is Staphylococcus aureus. In words: Inhibition of biofilm formation in methicillin resistant Staphylococcus aureus ATCC 33592 at 0.1 to 10 ug/ml incubated for 48 hrs by crystal violet staining based assay. The conditions noted are these: dose 0.1-10 µg/ml. The class given is functional, organism-based.
The test system of data set [24] is Staphylococcus aureus. In words: Inhibition of biofilm formation in Staphylococcus aureus ATCC 29213 at 10 ug/ml incubated for 48 hrs by crystal violet staining based assay. The class given is functional, organism-based. The conditions noted are these: dose 10.0 µg/ml.
A short description of data set [25]: Free AUC in BALB/c mouse at 10 mg/kg,po administration measured upto 24 hrs by LC-MS/MS analysis. The class given is ADME, organism-based. The conditions noted are these: in vivo.
Data set [26] in a line: Oral bioavailability in BALB/c mouse at 10 mg/kg administration measured upto 24 hrs by LC-MS/MS analysis. The class given is ADME, organism-based. The conditions noted are these: BALB/c, in vivo.
Data set [27] deals with Staphylococcus aureus. Description: Antibacterial activity against Staphylococcus aureus ATCC25923 assessed as inhibition of bacterial growth incubated for 18 hrs by microdilution broth assay. The class given is functional. In general terms: Broth dilution looks for growth in wells or tubes with falling amounts of substance.
The subject of data set [28] is Enterococcus faecalis. In words: Antibacterial activity against Linezolid resistant Enterococcus faecalis clinical isolate 20-1 assessed as inhibition of bacterial growth incubated for 7 days by alamar blue assay. The conditions noted are these: clinical isolate 20-1, 168 h, time 7 day. It counts as functional.
For data set [29], the system named is Enterococcus faecalis. Description: Antibacterial activity against Linezolid resistant Enterococcus faecalis clinical isolate 20-2 assessed as inhibition of bacterial growth incubated for 7 days by alamar blue assay. The class given is functional. Conditions: clinical isolate 20-2, 168 h, time 7 day.
Data set [30] is described as follows: Metabolic stability in ICR mouse liver microsomes assessed as compound remaining at 10 uM incubated for 60 mins in absence of NADPH by LC-MS/MS analysis. The class given is ADME, Microsome. The conditions noted are these: read-out: Stability.
A short description of data set [31]: Metabolic stability in human liver microsomes assessed as compound remaining at 10 uM incubated for 60 mins in absence of NADPH by LC-MS/MS analysis. The conditions noted are these: read-out: Stability. It counts as ADME, Microsome.
A short description of data set [32]: Metabolic stability in ICR mouse liver microsomes assessed as substrate remaining at 10 uM incubated for 60 mins in presence of NADPH by LC-MS/MS analysis. The class given is ADME, Microsome. Conditions: read-out: Stability.
Data set [33] can be described thus: Metabolic stability in human liver microsomes assessed as substrate remaining at 10 uM incubated for 60 mins in presence of NADPH by LC-MS/MS analysis. It counts as ADME, Microsome. Conditions: read-out: Stability.

For `CC(=O)NC[C@H]1CN(c2ccc(N3CCOCC3)c(F)c2)C(=O)O1` [LINEZOLID], the MIC in [1] is 0.8 µg/mL (≈ 2.37 µM); in the data set on Enterococcus faecalis [2], 0.5 µg/mL (≈ 1.48 µM); in the data set on Bacillus subtilis, above 64 µg/mL; in data set [3] it was 2 µg/mL (≈ 5.93 µM); with Staphylococcus aureus [5], 1 µg/mL (≈ 2.96 µM); with Staphylococcus aureus [6], 1 µg/mL (≈ 2.96 µM). The MIC in [7] is 0.5 µg/mL (≈ 1.48 µM); in [8], 0.5 µg/mL (≈ 1.48 µM); with Staphylococcus aureus [9] it was 1 µg/mL (≈ 2.96 µM); with Enterococcus it was 2 µg/mL (≈ 5.93 µM); with Staphylococcus aureus [10], 8 µg/mL (≈ 23.7 µM); in the data set on Staphylococcus aureus [11], 8 µg/mL (≈ 23.7 µM). The MIC with Staphylococcus aureus [12] amounted to 8 µg/mL (≈ 23.7 µM). In [4], this compound showed an IC50 at 48 h above 64 µg/mL. This compound gave an IC50 in the data set on Staphylococcus aureus [13] of 1.1 µg/mL (≈ 3.26 µM). Further, the result in the data set on Staphylococcus aureus [14], in the data set with Staphylococcus aureus [15], with Staphylococcus aureus [16], in the data set on Staphylococcus aureus [17], in the data set with Staphylococcus aureus [18] and with Staphylococcus aureus [19] was Active. In addition, the result with Staphylococcus aureus [20], with Cell membrane [21] and with Cell membrane [22] was Active. The inhibition result with Staphylococcus aureus [23] and with Staphylococcus aureus [24] was “Active” in each case. The compound also gave a fAUC in data set [25] of 5260 ng·h/mL.
The compound `CC(=O)Nc1ccc(O)cc1` [ACETAMINOPHEN] returned a bioavailability in data set [26] of 27.6%.
Consider `COC(=O)NC[C@@H]1OC(=O)N2Cc3cc(-c4ccc(C#N)nc4)c(F)cc3O[C@@H]12`, for which the MIC in data set [1] was determined as 0.97 µg/mL (≈ 2.44 µM); in the data set on Staphylococcus aureus [27] it was 8 µg/mL (≈ 20.1 µM); in the data set on Enterococcus faecalis [2], 0.5 µg/mL (≈ 1.26 µM); with Bacillus subtilis, 0.125 µg/mL (≈ 0.314 µM); in data set [3] it was 0.25 µg/mL (≈ 0.628 µM); with Staphylococcus aureus [5], 0.5 µg/mL (≈ 1.26 µM). The MIC with Staphylococcus aureus [6] amounted to 0.5 µg/mL (≈ 1.26 µM); in [7] it was 0.25 µg/mL (≈ 0.628 µM); in data set [8], 0.25 µg/mL (≈ 0.628 µM); in the data set with Staphylococcus aureus [9] it was 1 µg/mL (≈ 2.51 µM); in the data set on Enterococcus, 1 µg/mL (≈ 2.51 µM); with Staphylococcus aureus [10] it was 16 µg/mL (≈ 40.2 µM). The results for the MIC in the data set with Staphylococcus aureus [11], in the data set on Enterococcus faecalis [28] and in the data set on Enterococcus faecalis [29] were 16 µg/mL (≈ 40.2 µM), 4 µg/mL (≈ 10 µM) and 4 µg/mL (≈ 10 µM), respectively. In addition, the IC50 at 48 h in [4] was 33 µg/mL (≈ 82.8 µM). In addition, the remaining at 1 h, 10 µM in [30] was found to be 113%; in data set [31], 114%; in data set [32], 116%; in data set [33], 103%.
